Numbered stars: 1 amine (or outer) side, 2 acyl side, 3 side chain; on linkers, the order of the positions; unused ones are H or OH. Bridge positions count the residues as written; N and C are the ends. Square brackets hold non-standard residues; d marks the D form. Peptide text beside a SMILES is read from it. I, II: the chains in the order shown. Actinocin(9to1) = Cc1c2oc3c(C)ccc(C(=O)[*:1])c3nc-2c(C(=O)[*:2])c(N)c1=O; NMeV = CN[C@H](C(=O)O)C(C)C; Sar = CNCC(=O)O
Columns and labels:
Assay type in all cases: cell-based, Spodoptera frugiperda
Sf9 cells = experiment: Resistance to induction of apoptosis by actinomycin D: cell survival
Method: (§1) The cells were examined for resistance to induction of apoptosis by actinomycin D, as well as survival under conditions of nutrient deprivation. Sf9 cells or stably transfected lines Sf9^P35AcV5−1 and Sf9^P35AcV5−3 were incubated in medium containing 0.1 μg/ml actinomycin D for 1 hour, then placed in TNMFH medium.
(§2) Increasing doses of actinomycin D were tested to further examine the degree of resistance to this inducer of apoptosis. Sf9 or stably transfected cells expressing P35 were incubated in a range of concentrations of actinomycin D (0.01 to 0.5 μg/ml) for one hour, then placed in TNMFH and scored for cell survival after 1-4 days (Table 2).

Sf9P35AcV5-3 cells = experiment: as above
Method: as §1, §2

Sf9P35AcV5-1 cells = experiment: as above
Method: as §1, §2

[1] = test system: surviving transfected Sf9 cells; experiment: Actinomycin D selection of G418-selected transfected cells; details: 0.1 μg/ml actinomycin D for 1 hour, then fresh TNMFH; after three days
Method: In order to select cells expressing higher levels of functional P35, the surviving transfected cells were placed in medium containing 0.1 μg/ml actinomycin D for 1 hour. Another example of an inducer of apoptosis that could be used to select cells resistant to apoptosis is UV irradiation. In mammalian cells, inducers of apoptosis such as tumor necrosis factor (TNF) could also be used. The selection using an inducer of apoptosis could alternatively be performed without cotransfection with a selectable marker such as an antibiotic resistance gene.
At the end of the one hour incubation in actinomycin D, the medium was replaced with fresh TNMFH medium (containing no actinomycin D) and cells were allowed to grow for three days. After three days, 85-90% of the cells treated with actinomycin D-containing medium died. Medium was replaced after 3 days and surviving single cells formed small colonies which were subsequently propagated and used to clone individual cell lines by limiting dilution. For limiting dilution cloning, cells were diluted into 96 well plates such that each well received only one cell on average. Each well was subsequently monitored to ensure that only a single colony was present. Monoclonal cell lines were selected and propagated. Cell lines expressing the native P35 protein were named Sf9^P35, and lines expressing the epitope tagged P35 protein were named Sf9^P35AcV5. […]

[2] = 0.01 μg/ml actinomycin D for one hour, Day 1
[3] = 0.01 μg/ml actinomycin D for one hour, Day 2
[4] = 0.01 μg/ml actinomycin D for one hour, Day 3
[5] = 0.01 μg/ml actinomycin D for one hour, Day 4
[6] = 0.025 μg/ml actinomycin D for one hour, Day 1
[7] = 0.025 μg/ml actinomycin D for one hour, Day 2
[8] = 0.025 μg/ml actinomycin D for one hour, Day 3
[9] = 0.025 μg/ml actinomycin D for one hour, Day 4
[10] = 0.05 μg/ml actinomycin D for one hour, Day 1
[11] = 0.05 μg/ml actinomycin D for one hour, Day 2
[12] = 0.05 μg/ml actinomycin D for one hour, Day 3
[13] = 0.05 μg/ml actinomycin D for one hour, Day 4
[14] = 0.075 μg/ml actinomycin D for one hour, Day 1
[15] = 0.075 μg/ml actinomycin D for one hour, Day 2
[16] = 0.075 μg/ml actinomycin D for one hour, Day 3
[17] = 0.075 μg/ml actinomycin D for one hour, Day 4
[18] = 0.1 μg/ml actinomycin D for 1 hour, then TNMFH medium, after three days
[19] = 0.1 μg/ml actinomycin D for one hour, Day 1
[20] = 0.1 μg/ml actinomycin D for one hour, Day 2
[21] = 0.1 μg/ml actinomycin D for one hour, Day 3
[22] = 0.1 μg/ml actinomycin D for one hour, Day 4
[23] = 0.25 μg/ml actinomycin D for one hour, Day 1
[24] = 0.25 μg/ml actinomycin D for one hour, Day 2
[25] = 0.25 μg/ml actinomycin D for one hour, Day 3
[26] = 0.25 μg/ml actinomycin D for one hour, Day 4
[27] = 0.5 μg/ml actinomycin D for one hour, Day 1
[28] = 0.5 μg/ml actinomycin D for one hour, Day 2
[29] = 0.5 μg/ml actinomycin D for one hour, Day 3
[30] = 0.5 μg/ml actinomycin D for one hour, Day 4

## Cc1c2oc3c(C)ccc(C(=O)N[C@@H]4C(=O)N[C@H](C(C)C)C(=O)N5CCC[C@H]5C(=O)N(C)CC(=O)N(C)[C@@H](C(C)C)C(=O)O[C@@H]4C)c3nc-2c(C(=O)N[C@@H]2C(=O)N[C@H](C(C)C)C(=O)N3CCC[C@H]3C(=O)N(C)CC(=O)N(C)[C@@H](C(C)C)C(=O)O[C@@H]2C)c(N)c1=O [Actinomycin D, actinomycin D] (I: T[dV]P[Sar][NMeV] / II: T[dV]P[Sar][NMeV]; ester I:1-I:C, II:1-II:C; linker I:N-II:N via Actinocin(9to1))
Sf9 cells; [2]
  Sf9 Cell Survival (Percentage): 100 Percentage
Sf9 cells; [3]
  Sf9 Cell Survival (Percentage): 100 Percentage
Sf9 cells; [4]
  Sf9 Cell Survival (Percentage): 100 Percentage
Sf9 cells; [5]
  Sf9 Cell Survival (Percentage): 100 Percentage
Sf9 cells; [6]
  Sf9 Cell Survival (Percentage): 100 Percentage
Sf9 cells; [7]
  Sf9 Cell Survival (Percentage): 100 Percentage
Sf9 cells; [8]
  Sf9 Cell Survival (Percentage): 100 Percentage
Sf9 cells; [9]
  Sf9 Cell Survival (Percentage): 100 Percentage
Sf9 cells; [10]
  Sf9 Cell Survival (Percentage): 100 Percentage
Sf9 cells; [11]
  Sf9 Cell Survival (Percentage): 100 Percentage
Sf9 cells; [12]
  Sf9 Cell Survival (Percentage): 100 Percentage
Sf9 cells; [13]
  Sf9 Cell Survival (Percentage): 100 Percentage
Sf9 cells; 0.075 μg/ml actinomycin D
  survival of Sf9 cells: 80-95%
Sf9 cells; [14]
  Sf9 Cell Survival (Percentage): 95 Percentage
Sf9 cells; [15]
  Sf9 Cell Survival (Percentage): 90 Percentage
Sf9 cells; [16]
  Sf9 Cell Survival (Percentage): 83 Percentage
Sf9 cells; [17]
  Sf9 Cell Survival (Percentage): 83 Percentage
Sf9 cells; 0.1 μg/ml actinomycin D
  survival of Sf9 cells: ≤ 5%
Sf9 cells; [18]
  survival of Sf9 cells: all Sf9 cells died
Sf9 cells; [19]
  Sf9 Cell Survival (Percentage): 13.7 Percentage
Sf9 cells; [20]
  Sf9 Cell Survival (Percentage): 8.6 Percentage
Sf9 cells; [21]
  Sf9 Cell Survival (Percentage): 3.7 Percentage
Sf9 cells; [22]
  Sf9 Cell Survival (Percentage): 0 Percentage
Sf9 cells; [23]
  Sf9 Cell Survival (Percentage): 4.5 Percentage
Sf9 cells; [24]
  Sf9 Cell Survival (Percentage): 3.6 Percentage
Sf9 cells; [25]
  Sf9 Cell Survival (Percentage): 0 Percentage
Sf9 cells; [26]
  Sf9 Cell Survival (Percentage): 0 Percentage
Sf9 cells; [27]
  Sf9 Cell Survival (Percentage): 0 Percentage
Sf9 cells; [28]
  Sf9 Cell Survival (Percentage): 0 Percentage
Sf9 cells; [29]
  Sf9 Cell Survival (Percentage): 0 Percentage
Sf9 cells; [30]
  Sf9 Cell Survival (Percentage): 0 Percentage
Sf9P35AcV5-3 cells; [2]
  Sf9P35AcV5-3 Cell Survival (Percentage): 100 Percentage
Sf9P35AcV5-3 cells; [3]
  Sf9P35AcV5-3 Cell Survival (Percentage): 100 Percentage
Sf9P35AcV5-3 cells; [4]
  Sf9P35AcV5-3 Cell Survival (Percentage): 100 Percentage
Sf9P35AcV5-3 cells; [5]
  Sf9P35AcV5-3 Cell Survival (Percentage): 100 Percentage
Sf9P35AcV5-3 cells; [6]
  Sf9P35AcV5-3 Cell Survival (Percentage): 100 Percentage
Sf9P35AcV5-3 cells; [7]
  Sf9P35AcV5-3 Cell Survival (Percentage): 100 Percentage
Sf9P35AcV5-3 cells; [8]
  Sf9P35AcV5-3 Cell Survival (Percentage): 100 Percentage
Sf9P35AcV5-3 cells; [9]
  Sf9P35AcV5-3 Cell Survival (Percentage): 100 Percentage
Sf9P35AcV5-3 cells; [10]
  Sf9P35AcV5-3 Cell Survival (Percentage): 100 Percentage
Sf9P35AcV5-3 cells; [11]
  Sf9P35AcV5-3 Cell Survival (Percentage): 100 Percentage
Sf9P35AcV5-3 cells; [12]
  Sf9P35AcV5-3 Cell Survival (Percentage): 100 Percentage
Sf9P35AcV5-3 cells; [13]
  Sf9P35AcV5-3 Cell Survival (Percentage): 100 Percentage
Sf9P35AcV5-3 cells; [14]
  Sf9P35AcV5-3 Cell Survival (Percentage): 100 Percentage
Sf9P35AcV5-3 cells; [15]
  Sf9P35AcV5-3 Cell Survival (Percentage): 100 Percentage
Sf9P35AcV5-3 cells; [16]
  Sf9P35AcV5-3 Cell Survival (Percentage): 100 Percentage
Sf9P35AcV5-3 cells; [17]
  Sf9P35AcV5-3 Cell Survival (Percentage): 100 Percentage
Sf9P35AcV5-3 cells; [18]
  survival of Sf9P35AcV5-3 cells: survived
Sf9P35AcV5-3 cells; [19]
  Sf9P35AcV5-3 Cell Survival (Percentage): 100 Percentage
Sf9P35AcV5-3 cells; [20]
  Sf9P35AcV5-3 Cell Survival (Percentage): 100 Percentage
Sf9P35AcV5-3 cells; [21]
  Sf9P35AcV5-3 Cell Survival (Percentage): 100 Percentage
Sf9P35AcV5-3 cells; [22]
  Sf9P35AcV5-3 Cell Survival (Percentage): 100 Percentage
Sf9P35AcV5-3 cells; 0.25 μg/ml actinomycin D
  survival of stably transfected line: 100%
Sf9P35AcV5-3 cells; [23]
  Sf9P35AcV5-3 Cell Survival (Percentage): 100 Percentage
Sf9P35AcV5-3 cells; [24]
  Sf9P35AcV5-3 Cell Survival (Percentage): 100 Percentage
Sf9P35AcV5-3 cells; [25]
  Sf9P35AcV5-3 Cell Survival (Percentage): 100 Percentage
Sf9P35AcV5-3 cells; [26]
  Sf9P35AcV5-3 Cell Survival (Percentage): 100 Percentage
Sf9P35AcV5-3 cells; 0.5 μg/ml actinomycin D
  survival of stably transfected line: ≤ 10%
Sf9P35AcV5-3 cells; [27]
  Sf9P35AcV5-3 Cell Survival (Percentage): 9.2 Percentage
Sf9P35AcV5-3 cells; [28]
  Sf9P35AcV5-3 Cell Survival (Percentage): 8.5 Percentage
Sf9P35AcV5-3 cells; [29]
  Sf9P35AcV5-3 Cell Survival (Percentage): 1.5 Percentage
Sf9P35AcV5-3 cells; [30]
  Sf9P35AcV5-3 Cell Survival (Percentage): 0 Percentage
Sf9P35AcV5-3 cells; relative to Sf9 cells
  resistance to actinomycin D as an inducer of apoptosis: ≥ 2 fold
Sf9P35AcV5-1 cells; [2]
  Sf9P35AcV5-1 Cell Survival (Percentage): 100 Percentage
Sf9P35AcV5-1 cells; [3]
  Sf9P35AcV5-1 Cell Survival (Percentage): 100 Percentage
Sf9P35AcV5-1 cells; [4]
  Sf9P35AcV5-1 Cell Survival (Percentage): 100 Percentage
Sf9P35AcV5-1 cells; [5]
  Sf9P35AcV5-1 Cell Survival (Percentage): 100 Percentage
Sf9P35AcV5-1 cells; [6]
  Sf9P35AcV5-1 Cell Survival (Percentage): 100 Percentage
Sf9P35AcV5-1 cells; [7]
  Sf9P35AcV5-1 Cell Survival (Percentage): 100 Percentage
Sf9P35AcV5-1 cells; [8]
  Sf9P35AcV5-1 Cell Survival (Percentage): 100 Percentage
Sf9P35AcV5-1 cells; [9]
  Sf9P35AcV5-1 Cell Survival (Percentage): 100 Percentage
Sf9P35AcV5-1 cells; [10]
  Sf9P35AcV5-1 Cell Survival (Percentage): 100 Percentage
Sf9P35AcV5-1 cells; [11]
  Sf9P35AcV5-1 Cell Survival (Percentage): 100 Percentage
Sf9P35AcV5-1 cells; [12]
  Sf9P35AcV5-1 Cell Survival (Percentage): 100 Percentage
Sf9P35AcV5-1 cells; [13]
  Sf9P35AcV5-1 Cell Survival (Percentage): 100 Percentage
Sf9P35AcV5-1 cells; [14]
  Sf9P35AcV5-1 Cell Survival (Percentage): 100 Percentage
Sf9P35AcV5-1 cells; [15]
  Sf9P35AcV5-1 Cell Survival (Percentage): 100 Percentage
Sf9P35AcV5-1 cells; [16]
  Sf9P35AcV5-1 Cell Survival (Percentage): 100 Percentage
Sf9P35AcV5-1 cells; [17]
  Sf9P35AcV5-1 Cell Survival (Percentage): 100 Percentage
Sf9P35AcV5-1 cells; [18]
  survival of Sf9P35AcV5-1 cells: survived
Sf9P35AcV5-1 cells; [19]
  Sf9P35AcV5-1 Cell Survival (Percentage): 100 Percentage
Sf9P35AcV5-1 cells; [20]
  Sf9P35AcV5-1 Cell Survival (Percentage): 100 Percentage
Sf9P35AcV5-1 cells; [21]
  Sf9P35AcV5-1 Cell Survival (Percentage): 100 Percentage
Sf9P35AcV5-1 cells; [22]
  Sf9P35AcV5-1 Cell Survival (Percentage): 100 Percentage
Sf9P35AcV5-1 cells; 0.25 μg/ml actinomycin D
  survival of stably transfected line: 100%
Sf9P35AcV5-1 cells; [23]
  Sf9P35AcV5-1 Cell Survival (Percentage): 100 Percentage
Sf9P35AcV5-1 cells; [24]
  Sf9P35AcV5-1 Cell Survival (Percentage): 100 Percentage
Sf9P35AcV5-1 cells; [25]
  Sf9P35AcV5-1 Cell Survival (Percentage): 100 Percentage
Sf9P35AcV5-1 cells; [26]
  Sf9P35AcV5-1 Cell Survival (Percentage): 100 Percentage
Sf9P35AcV5-1 cells; 0.5 μg/ml actinomycin D
  survival of stably transfected line: ≤ 10%
Sf9P35AcV5-1 cells; [27]
  Sf9P35AcV5-1 Cell Survival (Percentage): 8.5 Percentage
Sf9P35AcV5-1 cells; [28]
  Sf9P35AcV5-1 Cell Survival (Percentage): 5.7 Percentage
Sf9P35AcV5-1 cells; [29]
  Sf9P35AcV5-1 Cell Survival (Percentage): 1.5 Percentage
Sf9P35AcV5-1 cells; [30]
  Sf9P35AcV5-1 Cell Survival (Percentage): 0 Percentage
Sf9P35AcV5-1 cells; relative to Sf9 cells
  resistance to actinomycin D as an inducer of apoptosis: ≥ 2 fold
[1]
  cells treated with actinomycin D-containing medium that died: 85-90%
